In patent publication US4486441A, “Pseudotropyl halogeno-benzoates and their use in migraine treatment” (Merrell Toraude Et Compagnie, priority 1982, dated 1984):
Where two headings read alike, the source gives them in different places.

Key:
[1] = biological target: T1, 5-HT M-receptor (Oryctolagus cuniculus, UniProt A0A5F9C9J3); test: pA2 against 5-HT in the isolated rabbit heart
T1 construct: determining their pA2 values in the isolated rabbit heart; from tissue; host or cells: isolated rabbit heart
T1 sequence (A0A5F9C9J3 1-494): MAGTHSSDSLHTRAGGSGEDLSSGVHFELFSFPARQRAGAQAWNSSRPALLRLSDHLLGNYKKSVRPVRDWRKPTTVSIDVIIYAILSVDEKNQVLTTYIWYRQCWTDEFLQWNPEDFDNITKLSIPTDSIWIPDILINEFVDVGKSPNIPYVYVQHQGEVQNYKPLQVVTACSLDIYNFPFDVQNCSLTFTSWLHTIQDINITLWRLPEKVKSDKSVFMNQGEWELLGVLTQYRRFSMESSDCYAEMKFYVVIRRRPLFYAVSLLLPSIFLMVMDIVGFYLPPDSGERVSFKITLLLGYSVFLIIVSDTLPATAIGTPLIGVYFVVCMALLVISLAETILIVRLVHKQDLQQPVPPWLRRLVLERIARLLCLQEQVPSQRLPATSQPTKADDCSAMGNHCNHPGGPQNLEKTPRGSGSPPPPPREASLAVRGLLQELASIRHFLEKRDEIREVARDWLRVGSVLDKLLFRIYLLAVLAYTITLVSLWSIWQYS
Description: The activity of the compounds against 5-HT can be assessed by determining their pA2 values in the isolated rabbit heart as described by Fozard et at Europ. J. Pharmacol. 59, 195-210 (1979). In the method described the molar concentration of antagonist which reduces the effects of twice the ED50 of 5-HT to that of the ED50 in the absence of antagonist is determined. The pA2 value is the negative logarithm of said molar concentrations.

[2] = biological target: T1, 5-HT M-receptor; conditions: potency as 5-HT M-receptor antagonist; values reported by Fozard et al, Eur. J. Pharmacol. 59(1979) and 49(1978); cited from earlier work
[3] = potency as 5-HT M-receptor antagonist, tests mentioned in the background section, read-out: pA2 (converted)

## COc1cc(C(=O)O[C@@H]2C[C@H]3CC[C@@H](C2)N3C)cc(OC)c1OC [pseudotropyl-3,4,5-trimethoxybenzoate]
[1]; [3]
  Kb: 2 µM

## COc1cc(OC)cc(C(=O)O[C@@H]2C[C@H]3CC[C@@H](C2)N3C)c1 [pseudotropyl-3,5-dimethoxybenzoate]
[1]; [3]
  Kb: 0.251 µM

## CN1[C@@H]2CC[C@H]1C[C@H](OC(=O)c1cc(Cl)cc(Cl)c1)C2 [Example 1, Pseudotropyl 3,5-Dichlorobenzoate (i.e. 3,5-Dichlorobenzoic Acid Exo-8-Methyl-8-Azabicyclo[3,2,1]Oct-3-Yl Ester)]
[1]; isolated rabbit heart, antagonism of 5-HT, read-out: pA2 (5-HT) (converted)
  Kb: 0.00251 µM

## CN1[C@@H]2CC[C@H]1C[C@H](OC(=O)c1ccccc1)C2 [pseudotropyl benzoate]
[2]
  pA2: 7.0

## CN1[C@@H]2CC[C@H]1C[C@@H](OC(=O)c1ccccc1)C2 [benzoyltropine]
[2]
  pA2: 7.2
